Data as given in US11116757B2 (priority 2015, dated 2021).
Read-outs that look alike come from different tables or passages of the source.

Target: DCN1-UBC12 interaction (Homo sapiens (Human), UniProt Q96GG9)
Assay: biochemical
Format: binding
[1] = Table 7, commercial compounds, read-out: TR-FRET IC50
[2] = Table 6, commercial compounds, read-out: TR-FRET IC50
[3] = Table 4, commercial compounds, read-out: TR-FRET IC50

Sequence of DCN1-UBC12 interaction (Q96GG9 60-248 limits assumed): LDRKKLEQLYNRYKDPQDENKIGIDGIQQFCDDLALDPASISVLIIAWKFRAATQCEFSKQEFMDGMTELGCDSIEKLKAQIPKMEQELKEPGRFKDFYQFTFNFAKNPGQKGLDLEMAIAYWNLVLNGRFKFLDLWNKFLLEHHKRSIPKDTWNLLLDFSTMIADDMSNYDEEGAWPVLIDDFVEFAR

Row | SMILES | IC50 (read-out: TR-FRET IC50) [µM] | further results
1 | COc1ccc(C2c3c(C)nn(C)c3NC(=O)C2NC(=O)c2ccc(OC)c(OC)c2)cc1F (stereo not shown) [F20] | – | IC50 [1]: > 67.6 µM
2 | CCCN1CCC(N(Cc2ccco2)C(=O)Nc2cccc(C(F)(F)F)c2)CC1 [A77, 1-(Furan-2-Ylmethyl)-1-(1-Propylpiperidin-4-yl)-3-(3-(Trifluoromethyl)Phenyl)Urea] | 0.798 | –
3 | CCCN1CCN(C(=O)c2cnn(-c3nccc(-c4cccs4)n3)c2C2CC2)CC1 [E58] | – | IC50 [2]: > 67.6 µM
4 | CCCC(C)N1CCC(N(Cc2ccccc2)C(=O)Nc2ccc(C)cc2)CC1 (stereo not shown) [A50] | 0.268 | –
5 | CCCC(C)N1CCC(N(Cc2ccccc2)C(=O)Nc2cccc(F)c2Cl)CC1 (stereo not shown) [A168] | 10.6 | –
6 | COCCN1CCN(C(=O)c2cnn(-c3nccc(-c4cccs4)n3)c2C(C)C)CC1 [E17] | – | IC50 [2]: 34.4 µM
7 | CCCC(C)N1CCC(N(Cc2ccccc2)C(=O)Nc2ccc(C)nc2Br)CC1 (stereo not shown) [A240] | > 51.7 | –
8 | CCCC(C)N1CCC(N(Cc2ccccc2CNC(=O)CCl)C(=O)Nc2cccc(C(F)(F)F)c2)CC1 (stereo not shown) [A24] | 0.154 | –
9 | CCCC(C)N1CCC(N(Cc2ccccc2)C(=O)Nc2cc(OC)cc(OC)c2)CC1 (stereo not shown) [A273] | > 68 | –
10 | O=C(Nc1cccc(C(F)(F)F)c1)NC1CCN(Cc2ccccc2F)CC1 [A238, 1-(1-(2-Fluorobenzyl)Piperidin-4-yl)-3-(3-(Trifluoromethyl)Phenyl)Urea] | > 49.4 | –
11 | CCCOc1cc(C2c3c(C)nn(C)c3NC(=O)C2NC(=O)c2ccc(Cl)cc2)ccc1OC (stereo not shown) [F9] | – | IC50 [1]: > 67.6 µM
12 | CCN1CCC(N(Cc2ccco2)C(=O)Nc2ccc(OC)c(OC)c2)CC1 [B77] | > 67.6 | –
13 | CCCC(C)N1CCC(N(CCCNC(=O)CCl)C(=O)Nc2cccc(C(F)(F)F)c2)CC1 (stereo not shown) [A245] | > 53.9 | –
14 | Cc1c(C(=O)N2CCN(C)CC2)cnn1-c1nccc(-c2cccs2)n1 [E49] | – | IC50 [2]: > 67.6 µM
15 | CCCC(C)N1CCC(N(Cc2cccc(NC(=O)CCl)c2)C(=O)Nc2cccc(C(F)(F)F)c2)CC1 (stereo not shown) [A17] | 0.0951 | –
16 | Cc1cnc(-n2ncc(C(=O)N3CCN(C)CC3)c2C2CC2)nc1-c1cccs1 [E55] | – | IC50 [2]: > 67.6 µM
17 | O=C(Nc1cccc(CN2CCOCC2)c1)NC1CCN(Cc2ccccc2)CC1 [A276, 1-(1-Benzylpiperidin-4-yl)-3-(3-(Morpholinomethyl)Phenyl)Urea] | > 68.7 | –
18 | CC(=O)N1CCC(N(Cc2ccco2)C(=O)Nc2ccccc2Br)CC1 [B71] | > 67.6 | –
19 | CCCCN1CCC(N(Cc2ccccc2)C(=O)Nc2cccc(CC)c2)CC1 [A63] | 0.413 | –
20 | COc1ccc(C2c3c(C)nn(C)c3NC(=O)C2NC(=O)c2cccc(C)c2)cc1OC (stereo not shown) [F14] | – | IC50 [1]: > 67.6 µM
21 | CCCC(C)N1CCC(N(Cc2ccccc2)C(=O)Nc2ccc(I)cc2)CC1 (stereo not shown) [A4] | 0.035 | –
22 | COc1ccc(C(=O)N2CCC(C(=O)Nc3ccc(F)c(Cl)c3)CC2)cc1 [C16] | – | IC50 [3]: > 67.6 µM

Row | SMILES | IC50 (read-out: TR-FRET IC50) [µM] | further results
23 | COCCN(C)C(=O)c1cnn(-c2nccc(-c3cccs3)n2)c1C [E52] | – | IC50 [2]: > 67.6 µM
24 | CCCC(C)N1CCC(N(Cc2ccccc2)C(=O)Nc2ccc3c(c2)CCC3)CC1 (stereo not shown) [A8] | 0.0767 | –
25 | Cc1ccc(CN(C(=O)Nc2cc(F)ccc2F)C2CCN(Cc3ccccc3)CC2)o1 [B93] | > 67.6 | –
26 | O=C(Nc1ccc(CN2CCOCC2)cc1)Nc1cccc(C(F)(F)F)c1 [B108] | > 72.8 | –
27 | CCOc1ccc(C2c3c(C)nn(C)c3NC(=O)C2NC(=O)c2cccc(C)c2)cc1OC (stereo not shown) [F18] | – | IC50 [1]: > 67.6 µM
28 | Cc1ccccc1C(=O)N1CCC(C(=O)Nc2c(F)cccc2F)CC1 [C36] | – | IC50 [3]: > 67.6 µM
29 | CCCCN1CCC(N(Cc2ccccc2)C(=O)Nc2ccc(C)s2)CC1 [A182] | 21.1 | –
30 | O=C(c1ccc(F)cc1F)N1CCC(c2nc3ccccc3s2)CC1 [D11] | 30.6 | –
31 | CCCC(C)N1CCC(N(Cc2cccnc2)C(=O)Nc2ccc(Cl)c(Cl)c2)CC1 (stereo not shown) [A16] | 0.0905 | –
32 | CC(=O)N1CCC(N(Cc2ccco2)C(=O)Nc2ccccc2C(F)(F)F)CC1 [B76] | > 67.6 | –
33 | CCCC(C)N1CCC(N(Cc2ccccc2)C(=O)Nc2c(C)cccc2C)CC1 (stereo not shown) [A259] | > 62.4 | –
34 | O=C(Nc1ccc(F)c(Cl)c1)N(Cc1ccc2c(c1)OCO2)C1CCN(Cc2ccccc2)CC1 [B16] | 50.7 | –
35 | CC(=O)N1CCC(N(C(=O)Nc2cccc(C(F)(F)F)c2)C(C)C)CC1 [B65] | > 67.6 | –
36 | CCCC(C)N1CCC(N(Cc2ccccc2)C(=O)Nc2ccc([N+](=O)[O-])c(C(F)(F)F)c2)CC1 (stereo not shown) [A237] | > 48.4 | –
37 | CN1CC(NC(=O)NC2CCN(Cc3ccccc3)CC2)c2ccccc2C1=O (stereo not shown) [B17] | 55.6 | –
38 | CCCC(C)N1CCC(N(Cc2ccccc2)C(=O)Nc2ccc(C(=O)OC)cc2I)CC1 (stereo not shown) [A190] | 37.8 | –
39 | C=CS(=O)(=O)NCCN(C(=O)Nc1cccc(C(F)(F)F)c1)C1CCN(C(C)CCC)CC1 (stereo not shown) [A235] | > 41.1 | –
40 | COc1ccc(CN(C(=O)Nc2ccc(Cl)cc2)C2CCN(C(C)=O)CC2)cc1 [B81] | > 67.6 | –
41 | CSCCCNC(=O)c1cnn(-c2nccc(-c3cccs3)n2)c1C [E51] | – | IC50 [2]: > 67.6 µM
42 | CCCC(C)N1CCC(N(Cc2ccccc2)C(=O)Nc2cc(F)cc(S(F)(F)(F)(F)F)c2)CC1 (stereo not shown) [A48] | 0.26 | –
43 | CC(C)c1c(C(=O)N2CCN(CCO)CC2)cnn1-c1nccc(-c2cccs2)n1 [E7] | – | IC50 [2]: 21.3 µM
44 | Cc1cnc(-n2ncc(C(=O)NCCC(C)C)c2C)nc1-c1cccs1 [E29] | – | IC50 [2]: > 67.6 µM

Row | SMILES | IC50 (read-out: TR-FRET IC50) [µM] | further results
45 | O=C(Nc1cccc(C(F)(F)F)c1)N[C@H]1CCN(Cc2ccccc2)C[C@@H]1OC(=O)Nc1cccc(C(F)(F)F)c1 [A249] | > 59.6 | –
46 | CCCC1CCC(N(Cc2ccccc2)C(=O)c2cccc(C(F)(F)F)c2)CC1 (stereo not shown) [A193] | < 0.0029 | –
47 | COc1ccccc1CN1CCC(N(Cc2ccccc2)C(=O)Nc2cc(F)cc(C(F)(F)F)c2)CC1 [A224] | – | IC50 (TR-FRET IC50): > 25.3 µM
48 | COc1ccc(C)cc1NC(=O)N(Cc1ccc(C)o1)C1CCN(Cc2ccccc2)CC1 [B95] | > 67.6 | –
49 | CCCC(C)N1CCC(N(Cc2cccc(NC(=O)CCl)c2)C(=O)Nc2cccc(C(F)(F)F)c2)CC1 (stereo not shown) [drawing 842] | 0.095 | –
50 | CCCC(C)N1CCC(N(Cc2ccccc2)C(=O)Nc2cc(Cl)ccc2Cl)CC1 (stereo not shown) [A152] | 6.27 | –
51 | Cc1ccc(CN(C(=O)Nc2cccc(C(F)(F)F)c2)C2CCN(Cc3ccccc3)CC2)o1 [B1] | 2.73 | –
52 | CCC1CN(C(=O)N2CCC(C(=O)Nc3cccc(Cl)c3)CC2)c2ccccc2O1 (stereo not shown) [C55] | – | IC50 [3]: > 67.6 µM
53 | CC(CCN1CCC(N(Cc2ccccc2)C(=O)Nc2cc(F)cc(C(F)(F)F)c2)CC1)c1ccccc1 (stereo not shown) [A127] | 2.23 | –
54 | COc1ccc(NC(=O)C2CCN(C(=O)c3cnn(-c4ccccc4)c3-n3cccc3)CC2)cc1 [C49] | – | IC50 [3]: > 67.6 µM
55 | O=C(Nc1ccc2c(c1)OCCO2)N(Cc1ccco1)C1CCN(Cc2ccccc2)CC1 [B115] | > 74.6 | –
56 | CCCC(C)N1CCC(N(Cc2ccccc2)C(=O)Nc2ccc(CC#N)cc2)CC1 (stereo not shown) [A176] | 13.7 | –
57 | CCN(CC)C(=O)c1cnn(-c2ncc(C)c(-c3cccs3)n2)c1C1CC1 [E26] | – | IC50 [2]: 65.2 µM
58 | CCCC(C)N1CCC(N(Cc2ccccc2)C(=O)Nc2ccc3c(c2)OCO3)CC1 (stereo not shown) [A86] | 0.991 | –
59 | COc1cc(OC)cc(C(=O)N2CCCC(c3nc4ccccc4s3)C2)c1 (stereo not shown) [D30] | > 67.6 | –
60 | CC(=O)N1CCC(C(=O)Nc2cccc(C)c2C)CC1 [C41] | – | IC50 [3]: > 67.6 µM
61 | CCCN1CCC(NC(=O)Nc2ccccc2Cl)CC1 [B51] | > 67.6 | –
62 | Cc1ccccc1CN1CCC(NC(=O)Nc2cccc(C(F)(F)F)c2)CC1 [A135] | 3.35 | –
63 | CC(=O)N1CCN(C(=O)c2cnn(-c3ncc(C)c(-c4cccs4)n3)c2C2CC2)CC1 [E50] | – | IC50 [2]: > 67.6 µM
64 | Cc1cc(NC(=O)C2CCN(C(=O)c3ccco3)CC2)ccc1Br [C38] | – | IC50 [3]: > 67.6 µM
65 | Cn1cncc1CN1CCC(N(Cc2ccccc2)C(=O)Nc2cc(F)cc(C(F)(F)F)c2)CC1 [A221] | > 24.8 | –
66 | CCCC(C)N1CCC(N(Cc2ccccc2)C(=O)Nc2cccc(C)c2)CC1 (stereo not shown) [A82] | 0.883 | –

Row | SMILES | IC50 (read-out: TR-FRET IC50) [µM] | further results
67 | O=C(Nc1ccc(Cl)cc1)NC1CCN(Cc2ccccc2)CC1 [B58] | > 67.6 | –
68 | CCCN1CCC(N(Cc2ccccc2)C(=O)Nc2cccc(C(F)(F)F)c2)CC1 [A85, 1-Benzyl-1-(1-Propylpiperidin-4-yl)-3-(3-(Trifluoromethyl)Phenyl)Urea] | 0.98 | –
69 | CCCC(C)N1CCC(N(Cc2ccccc2)C(=O)Nc2cccc(N(C)C)c2)CC1 (stereo not shown) [A112] | 2.3 | –
70 | Cc1nn(C)c2c1C(c1ccc(C(C)(C)C)cc1)C(NC(=O)c1ccccc1)C(=O)N2 (stereo not shown) [F11] | – | IC50 [1]: > 67.6 µM
71 | CCCC(C)N1CCC(N(Cc2ccccc2)C(=O)Nc2ccc(OC(F)(F)F)cc2)CC1 (stereo not shown) [A32] | 0.191 | –
72 | CCN(CC)CCNC(=O)c1cnn(-c2nccc(-c3cccs3)n2)c1C [E54] | – | IC50 [2]: > 67.6 µM
73 | O=C(c1ccc(Br)cc1)N1CCCC(c2nc3ccccc3s2)C1 (stereo not shown) [D27] | > 67.6 | –
74 | O=C(Nc1cccc(C(F)(F)F)c1)NC1CCN(Cc2ccc(Cl)cc2)CC1 [A186, 1-(1-(4-Chlorobenzyl)Piperidin-4-yl)-3-(3-(Trifluoromethyl)Phenyl)Urea] | 33.4 | –
75 | CCCC(C)N1CCC(N(Cc2ccc3c(c2)OCO3)C(=O)Nc2cc(F)cc(C(F)(F)F)c2)CC1 (stereo not shown) [A51] | 0.273 | –
76 | CCCC(C)N1CCC(N(Cc2ccccc2)C(=O)Nc2cc(C)oc2C(F)(F)F)CC1 (stereo not shown) [A255] | > 60.2 | –
77 | CCCC(C)N1CCC(N(Cc2ccccc2)C(=O)Nc2cc(F)ccc2Cl)CC1 (stereo not shown) [A169] | 11 | –
78 | CCCCN1CCC(N(Cc2ccccc2)C(=O)Nc2cc(F)cc(F)c2)CC1 [A142] | 4.26 | –
79 | CCCC(C)N1CCC(N(Cc2ccccc2)C(=O)Nc2ccc(Oc3ccc(Cl)cc3)cc2)CC1 (stereo not shown) [A22] | 0.131 | –
80 | CCCC(C)N1CCC(N(Cc2ccccc2)C(=O)Nc2ccc(-c3cccc(C(=O)OC)c3)cc2)CC1 (stereo not shown) [A116] | 2.37 | –
81 | CCCC(C)N1CCC(N(Cc2ccccc2)C(=O)Nc2cccc(O)c2)CC1 (stereo not shown) [A177] | 14.5 | –
82 | C#CCCCN1CCC(N(Cc2ccccc2NC(=O)CC)C(=O)Nc2ccc(Cl)c(Cl)c2)CC1 [A199] | > 14.5 | –
83 | Cc1cccc(CN2CCC(NC(=O)Nc3cccc(C(F)(F)F)c3)CC2)c1 [A155, 1-(1-(3-Methylbenzyl)Piperidin-4-yl)-3-(3-(Trifluoromethyl)Phenyl)Urea] | 6.77 | –
84 | CCN1CCC(NC(=O)Nc2cccc(C(F)(F)F)c2)CC1 [B15] | 49.7 | –
85 | C=CS(=O)(=O)NCCCN(C(=O)Nc1cccc(C(F)(F)F)c1)C1CCN(C(C)CCC)CC1 (stereo not shown) [drawing 838] | > 24 | –
